Paper PMC10786919, “Design-rules for stapled peptides with in vivo activity and their application to Mdm2/X antagonists” (Nature Communications, 2024)
Converted amounts (≈) assume the structure as drawn. Like-named read-outs stand apart in the source and are kept apart here. Positions of bridges follow the written chain, without caps; N, C: chain ends. Non-standard residues stand in square brackets, D forms with d. Residues, ends and D or L forms follow the SMILES beside them. Lys(N3) = [N-]=[N+]=NCCCC[C@H](N)C(=O)O; R8 = C=CCCCCCC[C@@](C)(N)C(=O)O; Cba = N[C@@H](CC1CCC1)C(=O)O; S5 = C=CCCC[C@](C)(N)C(=O)O; βAla = NCCC(=O)O

Assays:
[1] = Nanoclick permeability assay
Outline: (§1)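 Azido-peptide permeability was read as loss of NanoBRET signal (donor 450 nm, acceptor 610 nm) after adding NanoBret618-azide at 10 μM final.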

[2] = tested on: cells transiently transfected with the NanoLuc-HaloTag vector; test: Nanoclick permeability assay; conditions: for cell entry EC50: 4 h
Outline: as §1

[3] = Lactate dehydrogenase (LDH) release assay; format: cell-based; conditions: read-out: LDH: Cytotoxicity assay EC50
Outline: (§2)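 A p53 β-lactamase reporter HCT116 line, 8000 cells per well, is exposed to test compounds at 0.5% final DMSO and scored for LDH leakage.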

HCT116 cells = test: Lactate dehydrogenase (LDH) release assay; format: cell-based
Outline: as §2

[4] = Solubility assay (kinetic solubility, PBS pH 7); format: physicochemical; conditions: read-out: Solubility
Outline: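 Next, measure peak areas of sample and standard. Finally, multiply their ratio by the standard concentration to obtain solubility (µM).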

[5] = tested on: Jump-In T-REx CHO-K1 BLA cells; test: cells; format: cell-based; conditions: for EC50: read-out: TETCHO: Counterscreen EC50
[6] = tested on: p53 responsive β-lactamase reporter in HCT116 cells; test: cells; format: cell-based
Outline: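 Read-out used the ToxBLAzer Dual Screen for β-lactamase driven by a stably integrated p53-responsive reporter. Assay: 8000 HCT116 cells per well at 0.5% final DMSO. Reported numbers are geometric means over a minimum of three biological replicates.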

[7] = Experimental LogD (partition coefficient); conditions: not stated, Partition Coeff LogD
Ca Ski cell line = conditions: 72 h
Outline: (§3)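 Compound dilution series (10 points, 3-fold, 10 mM top stock in DMSO) tested on overnight-plated Ca Ski cells in RPMI1640/10% FBS and on blasticidin-selected p53RE-bla HCT-116 cells in McCoy's 5A; read-out was CellTiter-Glo 2.0 luminescence after room-temperature equilibration.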

[8] = tested on: CellSensor p53RE-bla HCT-116 Cell Line; conditions: 72 h
Outline: as §3

SMILES | cell entry EC50 [1] [nM] | Nanoclick permeability assay % Effect ([2]; 4Hr) [%] | EC50 ([3]; 0% FBS 4Hr) [nM] | EC50 ([3]; 10% FBS 16Hr) [nM] | LDH: Cytotoxicity assay % Effect (HCT116 cells; 0% FBS 4Hr) [%] | LDH: Cytotoxicity assay % Effect (HCT116 cells; 10% FBS 16Hr) [%] | solubility kinetic ([4]; pH 7, aqueous buffer, kinetic from dmso stock, pH 7, PBS) [µM] | TETCHO: Counterscreen % Effect ([5]; 0% FBS 4Hr) [%] | EC50 ([5]; 0% FBS 4Hr) [nM] | TETCHO: Counterscreen % Effect ([5]; 10% FBS 16Hr) [%] | EC50 ([5]; 10% FBS 16Hr) [nM] | p53 reporter assay % Effect ([6]; 0% FBS 4Hr) [%] | EC50 ([6]; 0% FBS 4Hr, read-out: p53 reporter assay EC50) [nM] | p53 reporter assay % Effect ([6]; 10% FBS 16Hr) [%] | EC50 ([6]; read-out: Cell EC50 (16 hr, 10% FBS), p53 reporter assay, 16 hr, 10% FBS) [nM] | logD [7] | cell entry EC50 [2] [nM] | EC50 (Ca Ski cell line) [nM] | EC50 [8] [nM] | solubility kinetic ([4]; pH 7) [µM]
CC(=O)N[C@@H](CCCCN=[N+]=[N-])C(=O)NCCC(=O)N[C@@H](CC(C)C)C(=O)N[C@H](C(=O)N[C@@H](Cc1ccccc1)C(=O)N[C@]1(C)CCCCCCC=CCCC[C@@](C)(C(=O)N[C@@H](C)C(=O)N[C@@H](CCC(=O)O)C(=O)N[C@@H](C)C(=O)N[C@@H](C)C(=O)N[C@@H](C)C(=O)N[C@H](C)C(N)=O)NC(=O)[C@H](CC2CCC2)NC(=O)[C@H](CCC(N)=O)NC(=O)[C@H](C)NC(=O)[C@H](Cc2c[nH]c3ccccc23)NC(=O)[C@H](Cc2ccc(O)cc2)NC(=O)[C@H](CCC(=O)O)NC1=O)[C@@H](C)O [MP-965, AZIDE-ATSP-7041 (E5A,S12A)] (Ac-[Lys(N3)][βAla]LTF[R8]EYWAQ[Cba][S5]AEAAA[dA]-NH2; staple 6-13) | 581 | 110.3 | > 50700 | > 50700 | -4.408 | 5.517 | 161 (≈ 358 µg/mL) | -2.385 | > 50400 | -17.5 | > 50400 | 97.76 | 1110 | 86.7 | 2200 | 2.69 |  |  |  | 
CC(=O)N[C@@H](CCCCN=[N+]=[N-])C(=O)NCCC(=O)N[C@@H](CC(C)C)C(=O)N[C@H](C(=O)N[C@@H](Cc1ccccc1)C(=O)N[C@]1(C)CCCCCCC=CCCC[C@@](C)(C(=O)N[C@@H](C)C(=O)N[C@@H](C)C(=O)N[C@@H](C)C(=O)N[C@@H](C)C(=O)N[C@@H](C)C(=O)N[C@@H](C)C(=O)N[C@@H](C)C(N)=O)NC(=O)[C@H](CC2CCC2)NC(=O)[C@H](CCC(N)=O)NC(=O)[C@H](C)NC(=O)[C@H](Cc2c[nH]c3ccccc23)NC(=O)[C@H](Cc2ccc(O)cc2)NC(=O)[C@H](CCC(=O)O)NC1=O)[C@@H](C)O [MP-471] |  |  |  |  |  |  |  |  |  |  |  |  |  |  |  |  | 1350 | 26700 | 10700 | 
CC(=O)N[C@@H](CCCCN=[N+]=[N-])C(=O)NCCC(=O)N[C@@H](CC(C)C)C(=O)N[C@H](C(=O)N[C@@H](Cc1ccccc1)C(=O)N[C@]1(C)CCCCCCC=CCCC[C@@](C)(C(=O)N2CCC[C@H]2C(=O)N2CCC[C@H]2C(=O)N2CCC[C@H]2C(=O)N2CCC[C@H]2C(=O)N2CCC[C@H]2C(=O)N2CCC[C@H]2C(N)=O)NC(=O)[C@H](CC2CCC2)NC(=O)[C@H](CCC(N)=O)NC(=O)[C@H](C)NC(=O)[C@H](Cc2c[nH]c3ccccc23)NC(=O)[C@H](Cc2ccc(O)cc2)NC(=O)[C@H](CCC(=O)O)NC1=O)[C@@H](C)O [MP-094] |  |  |  |  |  |  |  |  |  |  |  |  |  |  |  |  | 942 | > 49800 | 1330 | 158 (≈ 367 µg/mL)
